Experimental data from patent publication US10858398B2, “Lytic peptide biosensor and methods of making and using the same” (Deetex, LLC, priority 2018, dated 2020).

Key:
Format in all cases: cell-based
[1] = system: E. coli bacterial cells induced to produce β-galactosidase; test: β-galactosidase release colour change assay (X-gal), induced bacteria in welled plate; details: then X-gal 15 minutes at 37° C.
Protocol: (§1) Non-induced E. coli cells were deposited in wells F1-F3 (control). The cells were treated as follows: Group 1, 10% SDS was added to wells A1-A3, B1-B3, and C1-C3; Group 2, 100 μM LL-37 was added to D1-D3; Group 3, untreated induced bacterial cells in wells E1-E3 (control); Group 4, 100 μM LL-37 added to wells F1-F3. Samples were incubated for 15 minutes post-treatment, and 20 μL of 20 mg/mL X-gal substrate was added to each well and allowed to incubate for 15 minutes at 37° C.
A plate was designed as set forth in FIG. 6a: Group 5, induced bacterial cells treated with 100 uM LL-37 (wells A1-A3, B1-B3, C1-C3); Group 6, induced bacterial cells treated with 10% PBS (wells D1-D3), Group 7, non-induced bacteria treated with a lytic agent (wells E1-E3); Group 8, non-induced bacteria untreated (wells F1-F3); Group 9, induced bacteria treated with a lytic agent (wells G1-G3); and Group 10, untreated induced bacteria.
Samples were incubated for 15 minutes post-treatment, and 20 uL of 20 mg/mL X-gal substrate was added to each well and allowed to incubate for 15 minutes at 37° C.
A plate was designed as set forth in FIG. 7a: Group 11, induced bacteria were treated with 100 uM LL-37 (wells A1-A3, B1-B3, and C1-C3); Group 12, induced bacteria that were untreated (wells D1-D3). […]

lacZ transfected E. coli = test: Bacterial Assay: 1:2 dilution series of LL-37 on IPTG-induced lacZ transfected E. coli, X-gal colour change; details: 15 minutes room temperature, X-gal 15 minutes 37° C.
Protocol: E. coli cells transfected with the lacZ gene that encodes the protein β-galactosidase were obtained. The cells were plated to produce isolate colonies that were then selected.
An isolate colony of lacZ transfected E. coli from the plate of Example 2 was looped and inoculated into 10 mL of RPMI 1640 medium+glucose (available from ThermoFisher Scientific, Waltham, Mass.) and incubated at 37° C. for 24 hours.
The liquid bacterial culture from Example 3 was removed from incubation and centrifuged at 1200 RPM for 7 minutes. The supernatant was removed, and the bacterial pellet was resuspended in 1 mL of RPMI 1640 (−glucose) liquid tissue culture medium as Sample A. A 15 mL centrifuge tube was filled with induction media (8.9 mL RPMI 1640 (−glucose), 100 μL induced IPTG. 1 mL of the resuspended bacterial culture from Sample A was added to the new tube as Sample B, for a final volume of 10 mL. Sample B was incubated at 37° C. for 60 minutes.
After incubation, 100 μL of Sample B was transferred to each of wells A1-A12 and B1-B12. 10 μL of a 2000 μM LL-37 stock solution was then added to well A1, and a 1:2 dilution was conducted across wells A2-A11. The dilution was repeated for wells B1-B11. No LL-37 solution was added to wells A12 and B12 (controls). The plate was incubated for 15 minutes at room temperature. […]

[2] = system: Non-induced E. coli cells; test: β-galactosidase release colour change assay (X-gal), non-induced control cells; details: 100 μM LL-37; non-induced cells (Group 4); 15 minutes, then X-gal 15 minutes at 37° C.
Protocol: as §1

[3] = system: induced bacteria, lyophilized; test: Bacterial Assay IV: lyophilized and rehydrated induced bacteria, X-gal colour change in tubes; details: 100 uM LL-37, rehydrated after 72 hours, X-gal 15 minutes at 37° C.
Protocol: Aliquots of induced bacteria were prepared with 1 mL of the sample dispensed into three Eppendorf tubes. Samples were then lyophilized. After 72 hours to ensure stability, tubes were rehydrated with 1 mL of RPMI 1640 (+) Glucose culture medium and treated. 50 uL of 20 mg/mL X-gal substrate was added to each tube and allowed to incubate for 15 minutes at 37° C.

| Compound | colorimetric result (color change pink to blue, release of β-galactosidase) ([1]; 100 μM LL-37, 15 minutes post-treatment) | visual color change, higher concentrations of dilution series (lacZ transfected E. coli; wells A1-A5 and B1-B5, 10 μL of 2000 μM stock in well 1, then 1:2 dilution) | visual color change, lower concentrations of dilution series (lacZ transfected E. coli; wells A6-A11 and B6-B11 of the 1:2 dilution series) | colorimetric result (color change pink to blue) [2] | tube color change pink to blue (release of β-galactosidase) [3] | colorimetric result (color change pink to blue, release of β-galactosidase) ([1]; 10% SDS, 15 minutes post-treatment) |
| --- | --- | --- | --- | --- | --- | --- |
| LL-37: anti-microbial alpha-helical 37 amino acid peptide released from human cathelicidin; membrane lytic peptide, human or synthetic | completely converted the well color from pink to blue | appeared blue | remained pink | remained pink | converted the tube color from pink to blue | – |
| CCCCCCCCCCCCOS(=O)(=O)[O-].[Na+] [SDS] | – | – | – | – | – | mild color change |
